# Measured values: patent US20240190903A1, “COMPOUNDS FOR PROGRAMMABLE PROTEIN DEGRADATION AND METHODS OF USE FOR THE TREATMENT OF DISEASE” (Mayo Foundation for Medical Education and Research, priority 2021, published 2024)
# Experiments:
# [1] = tested on: PSGs and canonical β-Catenin target genes CCND1 and c-MYC; assay: RT-qPCR and western blot of PSGs, CCND1 and c-MYC in VCaP cells; assay type: cell-based, human
# Experimental: PRI-724 is a pro-drug of C-82, a second-generation specific β—Catenin/CBP antagonist.
# The total RNA was extracted from cultured cells or organoids using Trizol reagent (Thermo Fisher Scientific) according to the manufacturer's instructions. Complementary DNA was synthesized using reverse transcriptase (Promega). mRNA expression level was determined by real-time quantitative PCR (qPCR) using SYBR Green Mix (Thermo Fisher Scientific) with the realtime PCR system (Bio-Rad). Relative gene expression was normalized to the expression of house-keeping gene Actin Beta (ACTB).
# VCaP cells = assay: MTS cell growth assay in VCaP cells; assay type: cell-based, human; settings: compound added to cells, different doses
# Experimental: VCaP cells were seeded at the density of 5,000 cells per well in 96-well plate overnight. At the indicated time points, optical density (OD) of cells was measured by microtiter reader (Biotek) at 490 nanometer after incubation with MTS (Promega) for 2 hours at 37° C. in a cell incubator. For the treatment with CP-2, ICG-001 or PRI-724, cells were seeded in 96-well plate overnight followed by adding indicated compounds. OD values were measured at the indicated time points.
# 293T and VCaP cell lines = assay: Fluorescent microscopy of FITC-labelled ERG O′PROTAC transfection/uptake; assay type: cell-based, human; settings: 293T cells
# Experimental: FIGS. 2A-2C. ERG O′PROTACs degrade ERG protein in cultured cells. (FIG. 2A) 293T cells were transfected with FITC-labelled ERG O′PROTAC-13 (100 nM and 1,000 nM), and the transfection efficiency was monitored 48 hours post-transfection using a fluorescent microscope. Scale bar: 50 μm. (FIG. 2B) 293T cells were transfected with HA-ERG plasmid and a control or six indicated ERG O′PROTACs (100 nM) and harvested for western blot analysis 48 hours post-transfection. ERK2 was used as a loading control. (FIG. 2C) VCaP cells were transfected with a control or six indicated ERG O′PROTACs (100 nM), and cells were harvested for western blot analysis 48 hours post-transfection. Both endogenous full-length (FL) wild-type and TMPRSS2-ERG (T2-ERG) truncated ERG were detected.
# FIGS. 12A-12H. Phthalic acid-based ERG O′PROTAC degrades ERG oncoprotein. […] The P values were determined using the unpaired two-tailed Student's t-test. n.s. represents not significant by comparing the values in ERG O′PROTAC-treated groups to the control OP-treated group. […] The remaining ERG protein (%) was calculated by normalizing the value of each group to that of the group without ERG OP-C-P1 treatment. (FIG. 12H) The concentration of ERG OP-C-P1 degrading 50% of ERG protein (DC50) was calculated with Prism software. […]
# VCaP xenografts = VCaP xenografts in SCID mice; assay type: in vivo; settings: 25 mg/kg, 23 days
# Experimental: For IHC, tissues were rehydrated, endogenous peroxidase activity was destroyed, and antigens were retrieval. Antibodies for IHC as following: anti-AR (ab108341, Abcam), anti-ERG (ab92513, Abcam), anti-Ki67 (ab15580), anti-UMPS (NOVUS, #85896), anti-RRM1 (Cell signaling technology, #8637), anti-CBP (Santa Cruz Biotechnology, sc-583), anti-LEF1 (Cell signaling technology, #2230S). For quantification, the staining score was determined by multiplying the percentage of positive cells and the intensity ranged from 1 (weak staining), 2 (median staining), and 3 (strong staining). For Ki67 quantification, cells with positive staining in the nucleus were included to calculate the percentage of Ki67 positive-staining cells.
# Six-week SCID male mice were used in the study. Mice were subcutaneously injected with VCaP cells (5×10^6) mixed with Matrigel mixture (1×PBS: Matrigel (BD Biosciences)=1:1). After the xenografts reached a size of approximately 100 mm^3, mice were treated intraperitoneally with vehicle (90% corn oil (Sigma-Aldrich)+10% DMSO), ICG-001 or CBP PROTAC CP2 at 25 mg/kg for 5 days per week. For LEF1/TCF O′PROTAC administration, mice were transplanted with LuCaP23.1 PDX tumors in the approximately same volume. […] Tumor length (L) and width (W) were measured every 3 days, and tumor volumes were calculated by the formula: (L×W^2)/2. […]
# [2] = physiological pH 7.4; hydrolysis of phthalimide and glutarimide moiety; cited from earlier work
Compound,"expression of PSGs, CCND1 and c-MYC at mRNA and protein levels [1]",VCaP cell growth (MTS) (VCaP cells),other results
C[C@H]1[C@H]2N(C(=O)CN(C)N2C(=O)NCc2ccccc2)[C@@H](Cc2ccc(OP(=O)(O)O)cc2)C(=O)N1Cc1cccc2cccnc12 [PRI-724],inhibition,inhibition,
FITC-ERG OP-C1: Forward 5′-FITC-ACGGACCGGAAATCCGGTT-3′; reverse 5′-P1-AACCGGATTTCCGGTCCGT-3′,,,"uptake efficacy at 100 nM versus 1,000 nM (293T and VCaP cell lines): no difference in uptake efficacy; cellular uptake with lipofectamine 2000 versus mock transfection (293T and VCaP cell lines; 100 or 1,000 nM): greatly enhanced the cellular uptake"
O=C1[C@H](Cc2ccc(O)cc2)N2C(=O)CCN(C(=O)NCc3ccccc3)[C@H]2CN1Cc1cccc2ccccc12 [ICG-001],decreased expression,inhibited cell growth,mouse body weight (VCaP xenografts): did not result in obvious deleterious effect
O=C1CCC(N2C(=O)c3ccccc3C2=O)C(=O)N1 (centres unmarked) [thalidomide],,,stability [2]: poor stability
